The term IC50 denotes the concentration that inhibits the measured activity by half.

Read-outs that look alike come from different tables or passages of the source.

Drawing on paper PMC10041525, “New Dual Inhibitors of Bacterial Topoisomerases with Broad-Spectrum Antibacterial Activity and In Vivo Efficacy against Vancomycin-Intermediate Staphylococcus aureus” (Journal of Medicinal Chemistry, 2023), this text covers IC50 and MIC for 5 compounds.

In test [1] the target is T1, DNA gyrase from E. coli (Escherichia coli, UniProt P0AES6).
T1 construct: purchased Inspiralis
Kind of test: supercoiling HTS plate assay. It is filed as biochemical. Put shortly: (§1)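 E. coli gyrase tested by supercoiling and topo IV by relaxation in high-throughput plate format. IC50 from seven inhibitor concentrations; mean of three independent measurements.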

Test [2] concerns the target T2, topo IV from E. coli (Escherichia coli, UniProt P20083).
T2 construct: purchased Inspiralis
Kind of test: relaxation HTS plate assay. Type of test: biochemical. Summed up: as §1

Test [3] has as its system A. baumannii ATCC 17978. The test is described as follows: MIC broth microdilution (CLSI). It is filed as cell-based. The following applies: Acinetobacter baumannii, ATCC17978. Put shortly: (§2)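 Cation-adjusted Mueller Hinton broth 2 microdilution, 5 × 10^4 cells per well in 100 μL, three parallel replicates, plates bagged to limit evaporation; growth read as OD600 after incubation.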
For orientation: Broth dilution looks for growth in wells or tubes with falling amounts of substance.

For test [4], the system named is S. aureus ATCC 29213. Kind of test: MIC broth microdilution (CLSI). Type of test: cell-based. Put shortly:
as §2

Test [5] has as its system Enterococcus faecalis ATCC 29212. Kind of test: MIC broth microdilution (CLSI). It is filed as cell-based, E. faecalis. The following applies: Enterococcus faecalis, ATCC29212.
The subject of test [6] is E. coli ATCC 25922. Kind of test: MIC broth microdilution (CLSI). Type of test: cell-based. The following applies: Escherichia coli, ATCC25922. Summed up:
(§3)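 CLSI broth microdilution in cation-adjusted Mueller Hinton broth 2, 5 × 10^4 cells per well, top inhibitor concentration 64 μg/mL (≤0.64% DMSO). Incubated 18 h at 37 °C with shaking at 150 rpm, triplicates; MIC is the lowest concentration keeping mean OD600 increment below 1.5-fold background.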

In test [7] the test system is E. faecium ATCC 700221. Kind of test: MIC broth microdilution (CLSI). It is filed as cell-based.
For test [8], the system named is Enterobacter cloacae spp. cloacae ATCC 13047. The test is described as follows: MIC broth microdilution (CLSI). It is filed as cell-based. The following applies: Enterobacter cloacae, ATCC13047. Put shortly: as §3
Test [9] concerns K. pneumoniae ATCC 10031. Kind of test: MIC broth microdilution (CLSI). Type of test: cell-based. Summed up:
as §3

Test [10] concerns P. aeruginosa ATCC 27853. Kind of test: MIC broth microdilution (CLSI). It is filed as cell-based. The following applies: Pseudomonas aeruginosa, ATCC27853. Summed up:
as §3

The subject of test [11] is S. aureus (MRSA) ATCC 43300. The test is described as follows: MIC broth microdilution (CLSI). It is filed as cell-based. Put shortly: as §3
Test [12] relates to S. aureus (VISA) ATCC 700699. Kind of test: MIC broth microdilution (CLSI). Type of test: cell-based. Summed up: as §3
Setting [13] is: Staphylococcus aureus, ATCC29213.
Where [14] appears, read: Enterococcus faecium, ATCC700221.
The mark [15] stands for this setting: Klebsiella pneumoniae, ATCC10031.
The mark [16] stands for this setting: Staphylococcus aureus, read-out: MIC [µg/mL](S. aureus MRSA ATCC4330).
The mark [17] stands for this setting: read-out: MIC [µg/mL] (A. baumannii ATCC 17978).
[18] abbreviates: Staphylococcus aureus, ATCC29213; read-out: MIC.
Where [19] appears, read: Staphylococcus aureus, ATCC29213; read-out: MIC [µg/mL](S. aureus ATCC 29213).
Setting [20] is: Enterococcus faecium, ATCC700221, read-out: MIC.
Setting [21] is: Klebsiella pneumoniae, ATCC10031, read-out: MIC.
The mark [22] stands for this setting: Staphylococcus aureus; read-out: MIC.
Setting [23] is: Staphylococcus aureus; read-out: MIC [µg/mL](S. aureus MRSA ATCC4330).
[24] abbreviates: Staphylococcus aureus, read-out: MIC.

T2 sequence (P0AFI2 whole entry): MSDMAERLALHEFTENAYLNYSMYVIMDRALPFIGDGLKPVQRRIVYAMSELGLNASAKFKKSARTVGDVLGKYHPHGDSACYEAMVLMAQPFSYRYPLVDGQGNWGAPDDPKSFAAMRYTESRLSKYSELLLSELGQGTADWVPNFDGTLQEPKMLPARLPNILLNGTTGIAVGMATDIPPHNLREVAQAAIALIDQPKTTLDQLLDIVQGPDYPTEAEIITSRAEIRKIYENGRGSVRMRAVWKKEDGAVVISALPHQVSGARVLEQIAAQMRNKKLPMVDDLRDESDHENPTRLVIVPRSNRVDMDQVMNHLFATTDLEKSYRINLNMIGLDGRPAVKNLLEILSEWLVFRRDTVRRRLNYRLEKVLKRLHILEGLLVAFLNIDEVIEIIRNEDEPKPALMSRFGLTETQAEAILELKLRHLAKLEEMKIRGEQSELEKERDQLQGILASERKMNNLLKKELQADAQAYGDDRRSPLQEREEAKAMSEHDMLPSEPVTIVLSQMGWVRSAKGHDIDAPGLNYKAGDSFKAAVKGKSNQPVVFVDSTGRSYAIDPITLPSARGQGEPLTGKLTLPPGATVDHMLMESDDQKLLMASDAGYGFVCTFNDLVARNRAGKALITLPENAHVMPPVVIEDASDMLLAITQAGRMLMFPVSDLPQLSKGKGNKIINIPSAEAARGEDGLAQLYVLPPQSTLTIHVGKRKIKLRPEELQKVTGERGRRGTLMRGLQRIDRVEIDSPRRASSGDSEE
T2 sequence (P20083 whole entry): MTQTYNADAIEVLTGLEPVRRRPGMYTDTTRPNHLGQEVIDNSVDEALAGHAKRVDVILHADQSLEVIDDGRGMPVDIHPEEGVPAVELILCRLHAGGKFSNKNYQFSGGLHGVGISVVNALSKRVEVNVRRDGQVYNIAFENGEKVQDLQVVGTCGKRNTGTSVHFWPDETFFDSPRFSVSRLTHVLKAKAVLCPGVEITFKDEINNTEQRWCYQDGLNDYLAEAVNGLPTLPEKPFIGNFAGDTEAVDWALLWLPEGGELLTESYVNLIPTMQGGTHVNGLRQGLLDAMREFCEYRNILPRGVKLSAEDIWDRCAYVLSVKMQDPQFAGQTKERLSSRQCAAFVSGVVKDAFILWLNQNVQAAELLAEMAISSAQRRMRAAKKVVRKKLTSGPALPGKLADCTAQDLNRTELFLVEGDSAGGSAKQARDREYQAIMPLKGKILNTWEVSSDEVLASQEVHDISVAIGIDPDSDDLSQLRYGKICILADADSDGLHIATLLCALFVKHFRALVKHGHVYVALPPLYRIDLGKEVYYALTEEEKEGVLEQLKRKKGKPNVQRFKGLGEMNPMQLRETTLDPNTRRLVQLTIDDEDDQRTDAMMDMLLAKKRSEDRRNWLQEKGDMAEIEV

`Cc1[nH]c(C(=O)Nc2nc3c(N4CCOC(C(F)(F)F)C4)cc(C(=O)O)cc3s2)c(Cl)c1Cl` (stereo not drawn) [7i, 2-(3,4-Dichloro-5-methyl-1H-pyrrole-2-carboxamido)-4-(2-(trifluoromethyl)morpholino)benzo[d]thiazole-6-carboxylic Acid]: the IC50 in test [1] (read-out: IC50) was below 10 nM; in [2] (IC50), 63 ± 1 nM. The MIC in test [3] is 4 µg/mL; in test [4] (setting [13]) it was below 0.0312 µg/mL; in test [5], below 0.0312 µg/mL; in test [6] it was 16 µg/mL; in test [7] (setting [14]), below 0.0312 µg/mL; in test [8], above 64 µg/mL. For the same compound, the MIC in [9] (setting [15]) is 4 µg/mL; in test [10], 4 µg/mL; in test [11] (Staphylococcus aureus) it was below 0.0312 µg/mL; in test [11] (setting [16]) it was below 0.0312 µg/mL; in test [12] (Staphylococcus aureus), below 0.0312 µg/mL.

As to `Cc1[nH]c(C(=O)Nc2nc3c(N4CCC(O)CC4)cc(C(=O)O)cc3s2)c(Cl)c1Cl` [7p, 2-(3,4-Dichloro-5-methyl-1H-pyrrole-2-carboxamido)-4-(4-hydroxypiperidin-1-yl)benzo[d]thiazole-6-carboxylic Acid], the IC50 was below 10 nM in test [1] (IC50 [nM] E. coli DNA gyrase) and 140 ± 3 nM in test [2] (read-out: IC50). Moreover, the MIC in test [3] (read-out: MIC) was above 64 µg/mL; in test [3] (setting [17]), above 64 µg/mL; in test [4] (setting [18]), 4 µg/mL; in [4] (setting [19]) it was 4 µg/mL; in test [5] (read-out: MIC), below 0.0312 µg/mL; in test [6] (read-out: MIC), above 64 µg/mL. The MIC was below 0.0312 µg/mL in test [7] (setting [20]); above 64 µg/mL in test [8] (read-out: MIC); 4 µg/mL in [9]; 4 µg/mL in test [9] (setting [21]); above 64 µg/mL in [10] (read-out: MIC); 4 µg/mL in [11] (setting [22]). Moreover, the MIC was 4 µg/mL in [11] (setting [23]) and 0.5 µg/mL in test [12] (setting [24]).

In the case of `Cc1[nH]c(C(=O)Nc2nc3c(N4[C@@H]5CC[C@H]4COC5)cc(C(=O)O)cc3s2)c(Cl)c1Cl` [7h, 4-((1R,5S)-3-Oxa-8-azabicyclo[3.2.1]octan-8-yl)-2-(3,4-dichloro-5-methyl-1H-pyrrole-2-carboxamido)benzo[d]thiazole-6-carboxylic Acid], the results for the IC50 in test [1] (IC50 [nM] E. coli DNA gyrase) and in test [1] (read-out: IC50) were 16 ± 6 nM and 13 ± 1 nM, respectively. Further, the MIC was 2 µg/mL in test [3] (read-out: MIC); 2 µg/mL in test [3] (setting [17]); below 0.0312 µg/mL in test [4] (setting [18]); below 0.0312 µg/mL in test [4] (setting [19]); below 0.0312 µg/mL in test [5] (read-out: MIC); 4 µg/mL in [6] (read-out: MIC). In addition, the MIC is below 0.0312 µg/mL in test [7] (setting [20]); 16 µg/mL in test [8] (read-out: MIC); 2 µg/mL in test [9] (setting [21]); 4 µg/mL in [10] (read-out: MIC); below 0.0312 µg/mL in [11] (setting [22]); below 0.0312 µg/mL in [11] (setting [23]). In addition, the MIC in test [12] (setting [24]) was 0.0625 µg/mL.

As for `Cc1[nH]c(C(=O)Nc2nc3c(N4CCOCC4)cc(C(=O)O)cc3s2)c(Cl)c1Cl` [7a, 2-(3,4-Dichloro-5-methyl-1H-pyrrole-2-carboxamido)-4-morpholinobenzo[d]thiazole-6-carboxylic Acid], the IC50 in [1] (read-out: IC50) is below 10 nM. The MIC in test [4] (setting [13]) is 0.25 µg/mL; in test [4] (Staphylococcus aureus, ATCC29213, read-out: MIC [µg/mL](S. aureus ATCC 29213)), 0.25 µg/mL; in [5] it was below 0.0312 µg/mL; in test [6] it was 8 µg/mL; in test [7] (setting [14]), below 0.0312 µg/mL; in [8], above 64 µg/mL. The MIC in [9] (setting [15]) is 0.5 µg/mL; in test [10] it was 16 µg/mL; in test [11] (Staphylococcus aureus) it was 0.0625 µg/mL; in test [11] (setting [16]) it was 0.25 µg/mL; in test [12], below 0.03125 µg/mL; in test [12] (Staphylococcus aureus), below 0.0312 µg/mL.

In the case of `Cc1[nH]c(C(=O)Nc2nc3c(N4CCOCC4)cc(C(=O)O)cc3s2)cc1F` [16b, 2-(4-Fluoro-5-methyl-1H-pyrrole-2-carboxamido)-4-morpholinobenzo[d]thiazole-6-carboxylic Acid], the IC50 is 31 ± 6 nM in test [1] (IC50 [nM] E. coli DNA gyrase) and 120 nM in test [2] (read-out: IC50). For the same compound, the MIC in test [3] (setting [17]) was above 64 µg/mL; in test [4] (setting [18]) it was 64 µg/mL; in test [4] (setting [19]) it was 64 µg/mL; in test [5] (read-out: MIC), 16 µg/mL; in test [6] (read-out: MIC), above 64 µg/mL; in test [7] it was 2 µg/mL. The MIC in test [7] (setting [20]) is 2 µg/mL; in test [11] (setting [22]), 32 µg/mL; in test [11] (setting [23]) it was 32 µg/mL; in test [12] (setting [24]), 8 µg/mL.
